Assay [1] concerns VEGF induced increases in intracellular calcium levels in HUVEC (human umbilical vein endothelial cells). In words: VEGF Stimulated Ca++ Signal in vitro (FLIPR). The assay is classed as cell-based. The note with it: VEGF 5 ng/mL; for IC50: 0.01 to 10.0 μM. In a few lines:
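HUVEC loaded with Fluo-4 (45 min, 37° C.), washed, then pre-incubated 30 min with compound (10 μM single dose or 0.01–10.0 μM; 0.1% DMSO) before 5 ng/mL VEGF. Fluorescence at 516 nm read by FLIPR; IC50 from % inhibition of max-min VEGF response.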

The target in assay [2] is T1, cytoplasmic domain of the human VEGF receptor (VEGFR-2) (Homo sapiens, UniProt P35968).
T1 construct: The cytoplasmic domain of the human VEGF receptor (VEGFR-2) was expressed as a Histidine-tagged fusion protein; Histidine tag
In words: KDR Assay. The note with it: His-VEGFR-2; 3.6 μM ATP. The assay is classed as biochemical. As for the experimental part:
The cytoplasmic domain of the human VEGF receptor (VEGFR-2) was expressed as a Histidine-tagged fusion protein following infection of insect cells using an engineered baculovirus. His-VEGFR-2 was purified to homogeneity, as determined by SDS-PAGE, using nickel resin chromatography. Kinase assays were performed in 96 well microtiter plates that were coated overnight with 30 μg of poly-Glu-Tyr (4:1) in 10 mM Phosphate Buffered Saline (PBS), pH 7.2-7.4. The plates were incubated with 1% BSA and then washed four times with PBS prior to starting the reaction. Reactions were carried out in 120 μL reaction volumes containing 3.6 μM ATP in kinase buffer (50 mM Hepes buffer pH 7.4, 20 mM MgCl2, 0.1 mM MnCl2 and 0.2 mM Na3VO4). Test compounds were reconstituted in 100% DMSO and added to the reaction to give a final DMSO concentration of 5%. Reactions were initiated by the addition 0.5 ng of purified protein. Following a ten minute incubation at 25° C., the reactions were washed four times with PBS containing 0.05% Tween-20. 100 μl of a monoclonal anti-phosphotyrosine antibody-peroxidase conjugate was diluted 1:10000 in PBS-Tween-20 and added to the wells for 30 minutes. Following four washes with PBS-Tween-20, 100 μl of O-phenylenediamine Dihydrochloride in Phosphate-citrate buffer, containing urea hydrogen peroxide, was added to the wells for 7 minutes as a colorimetric substrate for the peroxidase. The reaction was terminated by the addition of 100 μl of 2.5N H2SO4 to each well and read using a microplate ELISA reader set at 492 nm. IC50 values for compound inhibition were calculated directly from graphs of optical density (arbitrary units) versus compound concentration following subtraction of blank values.

T1 sequence (P35968 786-1356): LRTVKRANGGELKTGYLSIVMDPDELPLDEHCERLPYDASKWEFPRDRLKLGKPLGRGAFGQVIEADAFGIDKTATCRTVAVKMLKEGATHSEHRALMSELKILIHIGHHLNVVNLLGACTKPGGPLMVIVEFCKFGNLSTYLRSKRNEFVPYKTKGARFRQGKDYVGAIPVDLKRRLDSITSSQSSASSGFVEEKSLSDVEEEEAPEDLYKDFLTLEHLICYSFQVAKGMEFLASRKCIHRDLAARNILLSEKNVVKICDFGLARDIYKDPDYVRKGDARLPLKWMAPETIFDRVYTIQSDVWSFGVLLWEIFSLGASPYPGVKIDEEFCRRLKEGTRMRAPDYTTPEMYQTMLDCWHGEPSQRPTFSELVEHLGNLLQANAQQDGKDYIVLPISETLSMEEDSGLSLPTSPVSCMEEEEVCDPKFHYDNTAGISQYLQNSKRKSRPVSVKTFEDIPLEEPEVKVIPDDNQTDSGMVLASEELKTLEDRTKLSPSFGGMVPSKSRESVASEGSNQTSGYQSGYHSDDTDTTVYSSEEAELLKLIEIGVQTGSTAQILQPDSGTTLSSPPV

Turning to `Cc1cccc2c1C(=CNc1cccc(S(=O)(=O)N(CCO)CCO)c1)C(=O)N2` [Example 191, N,N-Bis-(2-hydroxy-ethyl)-3-[(4-methyl-2-oxo-1,2-dihydro-indol-3-ylidenemethyl)-amino]-benzenesulfonamide], in assay [1] (Homo sapiens), the inhibition at 10 µM came to 98.7% and the IC50 came to 2410 nM. The compound further registered an IC50 in assay [2] of 700 nM.
Regarding `O=C1Nc2cccc(F)c2C1=CNc1ccc(OCCN2CCCCC2)cc1` [Example 261, 4-Fluoro-3-{[4-(2-piperidin-1-yl-ethoxy)-phenylamino]-methylene}-1,3-dihydro-indol-2-one], the IC50 in assay [1] (Homo sapiens) is 1060 nM; in assay [2], 390 nM.
Consider `O=C1Nc2ccccc2C1=CNc1ccc(OCCCCl)cc1` [Example 198, 3-{[4-(3-Chloro-propoxy)-phenylamino]-methylene}-1,3-dihydro-indol-2-one], for which, in assay [1] (Homo sapiens), the inhibition at 10 µM is 56.3% and the IC50 stood at 7920 nM. Half-maximal inhibition in assay [2] (IC50) required 470 nM.
On to `O=C(O)CCc1ccc(NC=C2C(=O)Nc3ccc(Cl)cc32)cc1` [Example 146, 3-{4-[(5-Chloro-2-oxo-1,2-dihydro-indol-3-ylidenemethyl)-amino]-phenyl}-propionic acid], for which, in assay [1] (Homo sapiens), the inhibition at 10 µM came out at 98.4% and the IC50 was found to be 2070 nM. Also, the midpoint of inhibition in assay [2], the IC50, lay at 510 nM.
Regarding `Cc1cccc2c1C(=CNc1ccc(CCO)cc1)C(=O)N2` [Example 113, 3-{[4-(2-Hydroxy-ethyl)-phenylamino]-methylene}-4-methyl-1,3-dihydro-indol-2-one], the inhibition at 10 µM in assay [1] (Homo sapiens) turned out to be 97.5%. The same compound yielded an IC50 in assay [2] of 200 nM.
On to `O=C1Nc2ccccc2C1=CNc1ccc(C(=O)O)c(O)c1` [Example 44, 2-Hydroxy-4-[(2-oxo-1,2-dihydro-indol-3-ylidenemethyl)-amino]-benzoic acid], for which, in assay [1] (Homo sapiens), the inhibition at 10 µM was determined as 96% and the IC50 was determined as 2020 nM. In addition, in assay [2], the IC50 came to 660 nM.
Turning to `CCN(CC)CCOc1ccc(NC=C2C(=O)Nc3ccccc32)cc1` [Example 265, 3-{[4-(2-Diethylamino-ethoxy)-phenylamino]-methylene}-1,3-dihydro-indol-2-one], the values for the IC50 in assay [1], in assay [1] (Homo sapiens) and in assay [2] were 530 nM, at most 1000 nM and 610 nM, respectively.
On to `CCc1ccc(NC=C2C(=O)Nc3ccccc32)cc1` [Example 5, 3-[(4-Ethyl-phenylamino)-methylene]-1,3-dihydro-indol-2-one], for which the inhibition at 10 µM in assay [1] (Homo sapiens) was determined as 77.3%. For the same compound, the IC50 in assay [1] (Homo sapiens) amounted to 1820 nM; in assay [2], 480 nM.
In the case of `O=C(O)CCc1cccc(NC=C2C(=O)Nc3ccc(F)cc32)c1` [Example 175, 3-{3-[(5-Fluoro-2-oxo-1,2-dihydro-indol-3-ylidenemethyl)-amino]-phenyl}-propionic acid], the inhibition at 10 µM in assay [1] (Homo sapiens) was found to be 38%. The compound further returned an IC50 in assay [2] of 710 nM.
For `CCc1cccc(NC=C2C(=O)Nc3ccc(F)cc32)c1` [Example 176, 3-[(3-Ethyl-phenylamino)-methylene]-5-fluoro-1,3-dihydro-indol-2-one], in assay [1] (Homo sapiens), the inhibition at 10 µM amounted to 67.9% and the 50% inhibitory concentration (IC50) turned out to be 2540 nM. The same compound came in with an IC50 in assay [2] of 800 nM.
On the same counts, the results for `O=C(O)CCc1cccc(NC=C2C(=O)Nc3ccccc32)c1` [Example 141, 3-{3-[(2-Oxo-1,2-dihydro-indol-3-ylidenemethyl)-amino]-phenyl}-propionic acid] are 92.6%, 2960 nM and 510 nM.
For `O=C1Nc2ccccc2C1=CNc1ccc(OCCCCCl)cc1` [Example 199, 3-{[4-(4-Chloro-butoxy)-phenylamino]-methylene}-1,3-dihydro-indol-2-one], in assay [1] (Homo sapiens), the inhibition at 10 µM was determined as 32.4%. This compound gave an IC50 in assay [2] of 290 nM.
On to `CSc1ccc(NC=C2C(=O)Nc3ccc(F)cc32)cc1` [Example 171, 5-Fluoro-3-[(4-methylsulfanyl-phenylamino)-methylene]-1,3-dihydro-indol-2-one], for which the inhibition at 10 µM in assay [1] (Homo sapiens) worked out at 38.1%. 430 nM corresponded to half-maximal inhibition in assay [2] (IC50).
In the case of `CN1CCCC(COc2ccc(NC=C3C(=O)Nc4ccc(Cl)cc43)cc2)C1` (stereo not shown) [Example 283, 5-Chloro-3-{[4-(1-methyl-piperidin-3-ylmethoxy)-phenylamino]-methylene}-1,3-dihydro-indol-2-one], the IC50 in assay [1] was 940 nM; in assay [1] (Homo sapiens), at most 1000 nM; in assay [2], 150 nM.
Consider `CSc1ccc(NC=C2C(=O)Nc3ccccc32)cc1` [Example 136, 3-[(4-Methylsulfanyl-phenylamino)-methylene]-1,3-dihydro-indol-2-one], for which, in assay [1] (Homo sapiens), the inhibition at 10 µM is 63.7% and the IC50 is 2070 nM. In addition, in assay [2], half-maximal inhibition (IC50) required 490 nM.
On the same counts, the results for `COc1cc(NC=C2C(=O)Nc3ccccc32)cc(OC)c1` [Example 16, 3-[(3,5-Dimethoxy-phenylamino)-methylene]-1,3-dihydro-indol-2-one] are 50%, at least 10000 nM and 1270 nM.
On the same counts, the results for `Cc1cccc2c1C(=CNc1cccc(O)c1)C(=O)N2` [Example 60, 3-[(3-Hydroxy-phenylarmino)-methylene]-4-methyl-1,3-dihydro-indol-2-one] are 94%, 1330 nM and 280 nM.
Turning to `COc1ccc(NC=C2C(=O)Nc3ccc(F)cc32)cc1` [Example 222, 5-Fluoro-3-[(4-methoxy-phenylamino)-methylene]-1,3-dihydro-indol-2-one], the inhibition at 10 µM in assay [1] (Homo sapiens) is 48.8%. The midpoint of inhibition in assay [2], the IC50, lay at 470 nM.
On the same counts, the results for `Cc1cccc2c1C(=CNc1ccc(S(=O)(=O)NCCO)cc1)C(=O)N2` [Example 197, N-(2-Hydroxy-ethyl)-4-[(4-methyl-2-oxo-1,2-dihydro-indol-3-ylidenemethyl)-amino]-benzenesulfonamide] are 98.1% and 90 nM.
On to `COc1ccc(NC=C2C(=O)Nc3cccc(C)c32)cc1` [Example 59, 3-[(4-Methoxy-phenylamino)-methylene]-4-methyl-1,3-dihydro-indol-2-one], for which, in assay [1] (Homo sapiens), the inhibition at 10 µM turned out to be 86% and the IC50 amounted to 1650 nM. Further, 180 nM corresponded to half-maximal inhibition in assay [2] (IC50).
In the case of `O=C1Nc2cccc(F)c2C1=CNc1ccc(CN2CCOCC2)cc1` [Example 293, 4-Fluoro-3-[(4-morpholin-4-ylmethyl-phenylamino)-methylene]-1,3-dihydro-indol-2-one], the IC50 is 880 nM in assay [1], at most 1000 nM in assay [1] (Homo sapiens) and 470 nM in assay [2].
For the compound `O=C(O)Cc1ccc(NC=C2C(=O)Nc3ccc(F)cc32)cc1` [Example 174, {4-[(5-Fluoro-2-oxo-1,2-dihydro-indol-3-ylidenemethyl)-amino]-phenyl}-acetic acid], the inhibition at 10 µM in assay [1] (Homo sapiens) worked out at 76.4%. Further, the IC50 in assay [1] (Homo sapiens) came to 6020 nM; in assay [2], 840 nM.
On the same counts, the results for `O=C1Nc2ccccc2C1=CNc1ccc2[nH]ncc2c1` [Example 32, 3-[(5-Indazolylamino)-methylene]-1,3-dihydro-indol-2-one] are 72.2%, 2660 nM and 600 nM.
On the same counts, the results for `O=C1Nc2ccccc2C1=CNc1ccc(OC(F)F)cc1` [Example 50, 3-{[4-(1,1-Difluoro-methoxy)-phenylamino]-methylene}-1,3-dihydro-indol-2-one] are 93.5%, 1650 nM and 550 nM.
On to `O=C1Nc2cccc(F)c2C1=CNc1ccc(CCN2CCCCC2)cc1` [Example 287, 4-Fluoro-3-{[4-(2-piperidin-1-yl-ethyl)-phenylamino]-methylene}-1,3-dihydro-indol-2-one], for which the IC50 in assay [1] is 620 nM; in assay [1] (Homo sapiens) it was at most 1000 nM; in assay [2] it was 110 nM.
For the compound `Cc1ccc(NC=C2C(=O)Nc3cccc(C)c32)cc1N` [Example 213, 3-[(3-Amino-4-methyl-phenylamino)-methylene]-4-methyl-1,3-dihydro-indol-2-one], the IC50 in assay [1] is 650 nM; in assay [1] (Homo sapiens) it was at most 1000 nM; in assay [2] it was 150 nM. For the same compound, the inhibition at 10 µM in assay [1] (Homo sapiens) turned out to be 95%.
As to `Cc1cccc2c1C(=CNc1ccc(CCC(=O)O)cc1)C(=O)N2` [Example 145, 3-{4-[(4-Methyl-2-oxo-1,2-dihydro-indol-3-ylidenemethyl)-amino]-phenyl}-propionic acid], the IC50 in assay [1] is 590 nM; in assay [1] (Homo sapiens) it was at most 1000 nM; in assay [2], 190 nM. In addition, the inhibition at 10 µM in assay [1] (Homo sapiens) turned out to be 98.7%.

The record behind these values is US20030225152A1, “3-(Arylamino)methylene-1, 3-dihydro-2h-indol-2-ones as kinase inhibitors” (priority 2001, published 2003).
